From the supplement of paper PMC10307832

Tests used:
Assay in all cases: relative viability (nuclei count vs DMSO), 5 days (fraction); higher = more cells survive
[1] = compound: CS(=O)(=O)c1ccc(-c2cnc(N)c(C(=O)Nc3ccccc3)n2)cc1 [VE-821] + Cc1nc(Nc2ncc(C(=O)Nc3c(C)cccc3Cl)s2)cc(N2CCN(CCO)CC2)n1 [Dasatinib] (partner 0.075 µM)
Outline: (§1)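 After 5 days of treatment, lung cancer cells in 1536-well plates were fixed and stained in a single step (final 0.05% Triton X-100, 1% formaldehyde, 1 ug/ml Hoechst) and their nuclei counted on 4× images. Treatment had been applied by pin tool the day after seeding as one drug alone or as a fixed anchor-drug dose with five library-drug doses (not always all listed) in √10 steps. Relative viability is the nuclei count of treated wells divided by that of vehicle wells, and values are medians of duplicate plates.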

[2] = compound: CS(=O)(=O)c1ccc(C(=O)Nc2ccc(Cl)c(-c3ccccn3)c2)c(Cl)c1 [Vismodegib] + CC(=O)c1c(C)c2cnc(Nc3ccc(N4CCNCC4)cn3)nc2n(C2CCCC2)c1=O [Palbociclib] (partner 0.5 µM)
Outline: as §1

[3] = compound: CS(=O)(=O)c1ccc(C(=O)Nc2ccc(Cl)c(-c3ccccn3)c2)c(Cl)c1 [Vismodegib] + CC1(C)CCC(c2ccc(Cl)cc2)=C(CN2CCN(c3ccc(C(=O)NS(=O)(=O)c4ccc(N[C@H](CCN5CCOCC5)CSc5ccccc5)c(S(=O)(=O)C(F)(F)F)c4)cc3)CC2)C1 [Navitoclax] (partner 0.5 µM)
Outline: as §1

[4] = compound: N#CC[C@H](C1CCCC1)n1cc(-c2ncnc3[nH]ccc23)cn1 [Ruxolitinib] + NC(=O)Nc1cc(-c2cccc(F)c2)sc1C(=O)N[C@H]1CCCNC1 [AZD7762] (partner 0.2 µM)
Outline: as §1

Cell Line	relative viability ([1]; first compound 0.08 µM)	relative viability ([1]; first compound 0.253 µM)	relative viability ([1]; first compound 0.8 µM)	relative viability ([1]; first compound 2.53 µM)	relative viability ([1]; first compound 8 µM)	relative viability ([2]; first compound 0.08 µM)	relative viability ([2]; first compound 0.253 µM)	relative viability ([2]; first compound 0.8 µM)	relative viability ([2]; first compound 2.53 µM)	relative viability ([2]; first compound 8 µM)	relative viability ([3]; first compound 0.08 µM)	relative viability ([3]; first compound 0.253 µM)	relative viability ([3]; first compound 0.8 µM)	relative viability ([3]; first compound 2.53 µM)	relative viability ([3]; first compound 8 µM)	relative viability ([4]; first compound 0.08 µM)	relative viability ([4]; first compound 0.253 µM)	relative viability ([4]; first compound 0.8 µM)	relative viability ([4]; first compound 2.53 µM)	relative viability ([4]; first compound 8 µM)
H3255	0.364	0.403	0.321	0.383	0.328	0.296	0.29	0.292	0.33	0.324	0.614	0.441	0.462	0.439	0.518	0.783	0.868	1.08	0.774	0.743
HARA	0.271	0.221	0.315	0.254	0.253	0.284	0.245	0.221	0.303	0.27	1.13	1.15	1.16	1.11	1.14	0.344	0.365	0.377	0.0804	0.304
HCC-15	0.704	0.595	0.6	0.721	0.495	0.718	0.715	0.794	0.838	0.738	0.675	0.678	0.689	0.665	0.676	1.09	0.878	1.23	1.12	1.17
HCC-44	–	–	–	–	–	1.02	0.92	0.911	0.913	1.01	1.05	0.893	1.05	0.989	0.87	0.947	1.05	1	0.994	1.05
HCC-78	0.453	0.281	0.376	0.432	0.33	0.535	0.505	0.483	0.44	0.488	0.703	0.759	0.638	0.707	0.78	0.695	0.484	0.481	0.631	0.628
HCC-366	0.67	0.633	0.516	0.255	0.0491	0.342	0.373	0.463	0.456	0.449	0.991	0.98	0.974	1.1	1.09	0.286	0.253	0.262	0.166	0.246
HCC-827	0.322	0.294	0.289	0.421	0.262	0.222	0.517	0.449	0.446	0.481	1.03	1.04	0.961	1.03	1.02	–	0.178	0.238	0.236	0.308
HOP-62	0.708	0.656	0.651	0.858	0.684	0.4	0.411	0.425	0.46	0.39	0.985	1.06	0.915	0.819	1.07	0.437	0.796	0.564	0.627	0.704
